Among the data in patent publication US9233982B2, “Spiro tetrahydro—benzothiophen derivatives useful for the treatment neurodegenerative diseases” (Ares Trading S.A., priority 2012, dated 2016) are IC50 and EC50 values, retold here.

Assay [1] addresses T1, BACE-1 (Homo sapiens, UniProt P56817). The experiment in a line: LanthaScreen BACE1 biochemical assay (TR-FRET).
Procedure: Biochemical Assay to Assess Compounds for Inhibition of BACE-1
The LanthaScreen™ BACE1 assay kit from Invitrogen (Catalogue number PV4748) was used as the primary assay in the screening cascade.
Briefly, the test compound was incubated with the enzyme and substrate for 1 hour at room temperature in a reaction volume of 15 μl and then 5 nM terbium labelled anti-biotin antibody was added to stop the reaction and the solution incubated for a further 1 hour at room temperature. The microplate was read on an Envision plate reader fitted with a photometric 340 nm excitation filter and the amount of substrate that had been cleaved was represented by the TR-FRET ratio, calculated by dividing the Fluorescein emission signal (520 nm) by the Terbium emission signal (495 nm).
The target of assay [2] is T1, BACE-1. The experiment in a line: HTRF cell based assay, Aβ1-40 peptide secreted by recombinant HEK293 cells. On the set-up: endogenous in cells; host or cells: recombinant HEK293 cells engineered to over-produce APP. The conditions noted are these: Aβ1-40 secretion, recombinant HEK293 cells producing APP, overnight treatment; read-out: Cellular assay EC50 Ranges. As to the method: The cell based assay used to support the program utilized HTRF assay reagents from Cisbio (Catalogue number 62B40PEB) to quantify the amount of Aβ1-40 peptide secreted by recombinant HEK293 cells. The cells were engineered to produce high quantities of APP, the precursor for Aβ1-40 peptide, under hygromycin selection pressure. Briefly, cells were plated into 384-well microplates and allowed to settle for 2 hours prior to compound addition. Following overnight treatment with compound, the media containing secreted peptide was transferred into a low volume assay plate for quantification with HTRF immunoassay reagents. Adhering to the manufacturers protocol for quantification, a TR-FRET signal is obtained in the presence of the Aβ1-40 peptide following addition of a cryptate conjugated antibody and an XL665 conjugated antibody, each raised to a different epitope of the Aβ1-40 peptide. A low FRET signal is obtained when cells are treated with compounds that inhibit APP cleavage and peptide secretion.

SMILES strings stand for the structures.

T1 sequence (P56817 46-501): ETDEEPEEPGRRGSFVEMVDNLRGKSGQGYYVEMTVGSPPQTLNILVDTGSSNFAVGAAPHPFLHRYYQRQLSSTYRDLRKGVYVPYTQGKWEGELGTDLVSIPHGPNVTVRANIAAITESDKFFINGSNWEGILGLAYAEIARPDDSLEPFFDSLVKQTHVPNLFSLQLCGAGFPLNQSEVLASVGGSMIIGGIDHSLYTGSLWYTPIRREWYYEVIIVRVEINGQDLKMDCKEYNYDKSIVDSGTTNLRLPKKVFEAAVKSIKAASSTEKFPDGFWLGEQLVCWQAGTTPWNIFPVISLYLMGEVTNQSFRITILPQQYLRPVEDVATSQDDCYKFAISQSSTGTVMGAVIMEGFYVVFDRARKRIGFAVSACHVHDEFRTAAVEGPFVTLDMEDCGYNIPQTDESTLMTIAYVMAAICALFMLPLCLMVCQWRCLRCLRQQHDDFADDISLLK

`CC1(C)CCc2sc(-c3cccc(C(F)(F)F)c3)cc2C12CCSC(N)=N2` (centres unmarked) [Example 46, 5,5-dimethyl-2-(3-(trifluoromethyl)phenyl)-5′,6,6′,7-tetrahydro-5H-spiro[benzo[b]thiophene-4,4′-[1,3]thiazin]-2′-amine] came in with an IC50 against BACE-1 [1] of 5 to 65 µM. For the same compound, the EC50 on BACE-1 [2] lay in the range of 5 to 50 µM.

In turn, `CN1C(=O)C2(CCCc3sc(-c4cccc(C#N)c4)cc32)N=C1N` (centres unmarked) [Example 49, 3-(2′-amino-1′-methyl-5′-oxo-1′,5′,6,7-tetrahydro-5H-spiro[benzo[b]thiophene-4,4′-imidazole]-2-yl)benzonitrile] returned an IC50 against BACE-1 [1] of less than 1 µM. Further, at BACE-1 [2], the EC50 was not above 1 µM.

`CN1C(=O)C2(CCCc3sc(-c4cccnc4)cc32)N=C1N` (centres unmarked) [Example 52] showed an IC50 against BACE-1 [1] of 5 to 65 µM. Also, the EC50 at BACE-1 [2] fell in the range of 1 to 5 µM.

In the case of `CN1C(=O)C2(CCCc3sc(-c4cccc(OC(F)(F)F)c4)cc32)N=C1N` (centres unmarked) [Example 53], the IC50 at BACE-1 [1] was in the range of 1 to 5 µM. Also, the EC50 on BACE-1 [2] was 5 to 50 µM.

For `CN1C(=O)C2(CCCc3sc(-c4cccc(C(F)(F)F)c4)cc32)N=C1N` (centres unmarked) [Example 54], at BACE-1 [1], the IC50 was less than 1 µM. For the same compound, the EC50 at BACE-1 [2] fell in the range of 1 to 5 µM.

Take `COc1cc(C#N)cc(-c2cc3c(s2)CCCC32N=C(N)N(C)C2=O)c1` (centres unmarked) [Example 55]: the IC50 on BACE-1 [1] lay in the range of 1 to 5 µM. The EC50 at BACE-1 [2] fell in the range of 1 to 5 µM.

Turning to `CN1C(=O)C2(CCCc3sc(-c4cccc(Cl)c4)cc32)N=C1N` (centres unmarked) [Example 56], at BACE-1 [1], the half-maximal inhibitory concentration (IC50) fell in the range of 1 to 5 µM. Also, the EC50 at BACE-1 [2] lay in the range of 1 to 5 µM.

Regarding `N#Cc1cccc(-c2cc3c(s2)CCCC32N=C(N)N(Cc3ccccc3)C2=O)c1` (centres unmarked) [Example 57, 3-(2′-amino-1′-benzyl-5′-oxo-1′,5′,6,7-tetrahydro-5H-spiro[benzo[b]thiophene-4,4′-imidazole]-2-yl)benzonitrile], at BACE-1 [1], the IC50 was less than 1 µM. Further, the EC50 on BACE-1 [2] was in the range of 5 to 50 µM.

Compound `CN1OC2(CCCc3sc(-c4cccc(C(F)(F)F)c4)cc32)N=C1N` (centres unmarked) [Example 58, 2′-methyl-2-(3-(trifluoromethyl)phenyl)-6,7-dihydro-2′H,5H-spiro[benzo[b]thiophene-4,5′-[1,2,4]oxadiazol]-3′-amine] registered an IC50 at BACE-1 [1] of 1 to 5 µM. Besides, on BACE-1 [2], the EC50 was 5 to 50 µM.

`NC1=NC2(CCCc3sc(-c4cccc(C(F)(F)F)c4)cc32)ON1Cc1ccccc1` (centres unmarked) [Example 59] came in with an IC50 on BACE-1 [1] of 1 to 5 µM. Further, the half-maximal effective concentration (EC50) at BACE-1 [2] fell in the range of 5 to 50 µM.

In turn, `N#Cc1cccc(-c2cc3c(s2)CCCC32N=C(N)N(Cc3ccccc3)O2)c1` (centres unmarked) [Example 60] gave an IC50 against BACE-1 [1] of less than 1 µM. At BACE-1 [2], the EC50 fell in the range of 5 to 50 µM.

`NC1=NC2(CCCc3cc(-c4cccc(-c5ccccc5)c4)sc32)CCS1` (centres unmarked) [Example 61] showed an IC50 against BACE-1 [1] of 1 to 5 µM. The concentration giving a half-maximal response (EC50) at BACE-1 [2] lay within 5 to 50 µM.

Take `N#Cc1cccc(-c2cc3c(s2)C2(CCC3)CCSC(N)=N2)c1` (centres unmarked) [Example 62]: at BACE-1 [1], the IC50 lay within 5 to 65 µM. On BACE-1 [2], the EC50 lay within 5 to 50 µM.
